# Test system: SARS-CoV-2 S protein (S2 domain)
# Assay type: cell-based
# Conditions: Western blot with S2-specific antibodies
row,Compound,S2 domain levels in the medium of SC-VLP-producing cells
1,"CC(=O)OC[C@H]1O[C@@H](SCn2cc(COC[C@H]3O[C@@H](n4ccc(=O)[nH]c4=O)[C@H](O[Si](C)(C)C(C)(C)C)[C@@H]3O[Si](C)(C)C(C)(C)C)nn2)[C@H](OC(C)=O)[C@@H](OC(C)=O)[C@@H]1OC(C)=O [Compound 24, 2′,3′-di-O-tert-Butyldimethylsilyl-5′-O-[(1-(2″,3″,4″,6″-tetra-O-acetyl-β-D-glucopyranosylthiomethyl)-1,2-3-triazol-4-yl)-methyl]-uridine]",minor alterations
2,"CC(=O)OC[C@H]1O[C@@H](SCc2cn(C[C@H]3O[C@@H](n4ccc(=O)[nH]c4=O)[C@H](O[Si](C)(C)C(C)(C)C)[C@@H]3O[Si](C)(C)C(C)(C)C)nn2)[C@H](OC(C)=O)[C@@H](OC(C)=O)[C@H]1OC(C)=O [Compound 21, 2′,3′-di-O-tert-Butyldimethylsilyl-5′-deoxy-5′-[4-(2″,3″,4″,6″-tetra-O-acetyl-β-D-galactopyranosylthiomethyl)-1,2-3-triazol-1-yl]-uridine]",more pronounced reduction
3,"CC(=O)OC[C@H]1O[C@@H](SCc2cn(C[C@H]3O[C@@H](n4ccc(=O)[nH]c4=O)[C@H](O[Si](C)(C)C(C)(C)C)[C@@H]3O[Si](C)(C)C(C)(C)C)nn2)[C@H](OC(C)=O)[C@@H](OC(C)=O)[C@@H]1OC(C)=O [Compound 20, 2′,3′-di-O-tert-Butyldimethylsilyl-5′-deoxy-5′-[4-(2″,3″,4″,6″-tetra-O-acetyl-β-D-glucopyranosylthiomethyl)-1,2-3-triazol-1-yl]-uridine]",minor alterations
4,"CC(=O)OC[C@H]1O[C@@H](OCc2cn(C[C@H]3O[C@@H](n4ccc(=O)[nH]c4=O)[C@H](O[Si](C)(C)C(C)(C)C)[C@@H]3O[Si](C)(C)C(C)(C)C)nn2)[C@H](OC(C)=O)[C@@H](OC(C)=O)[C@H]1OC(C)=O [Compound 15, 2′,3′-di-O-tert-Butyldimethylsilyl-5′-deoxy-5′-[4-(2″,3″,4″,6″-tetra-O-acetyl-β-D-galactopyranosyloxymethyl)-1,2-3-triazol-1-yl]-uridine]",minor alterations
